For series [1], the target named is full-length mouse SOX18 (Mus musculus (Mouse), UniProt P43680). Nature of the series: FP DNA-binding competition assay, full-length SOX18. To be noted: full-length mouse SOX18, Prox1-DNA probe; for IC50: read-out: FP IC50 ± SD. The procedure: Full-length mouse SOX18. A N-terminally tagged mouse HIS-GST-SOX18 was recombinantly expressed in Sf9 cells, purified on GST resin (GE Healthcare Life Sciences, Sweden) and eluted in Tris buffer (50 mM Tris, 500 mM NaCl, 10 mM reduced glutathione, pH 8.0). cDNA clone of mouse Sox18 was PCR amplified and cloned into the pOPIN-GST vector, to generate N-terminally tagged HIS-GST-SOX18. A sequence verified construct was co-transfected with flashBACULTRA (Oxford Expression Technologies, Oxford, United Kingdom) baculovirus DNA onto Spodoptera frugiperda Sf9 cells to obtain recombinantly expressed HIS-GST-SOX18. High Five cells (BTI-TN-5B1-4) in Sf-900™ II serum-free medium were infected at cell density of 1.5×10^6 cells/mL with a multiplicity of infection (MOI) of 5 PFU/cell, and incubated at 21° C. for 144 h before harvest. The cell pellet from 100 mL of expression culture was resuspended in 30 mL of phosphate lysis buffer (50 mM sodium phosphate, 500 mM sodium chloride, 1% Triton X-100, 2 mM magnesium chloride, one tablet of cOmplete Protease Inhibitor Cocktail, pH 7.5) and sonicated on ice for 20 s. The cell lysate was centrifuged at 17,000×g for 40 min at 4° C. Supernatant was incubated with Benzonase Nuclease (Merck Millipore) for 1 h at room temperature for DNA degradation, before being mixed with 500 μL GST resin (GE Healthcare Life Sciences, Sweden) and incubated on a rotating wheel at room temperature for 1 h. The sample was centrifuged at 500×g for 1 min to remove unbound protein in the supernatant. The resin was further washed with 50 resin volumes (RV) wash buffer (50 mM sodium phosphate, 500 mM NaCl, pH 7.5), with unbound protein removed by centrifugation as above. Bound protein was eluted from the resin with 3×1 RV elution buffer (50 mM Tris, 500 mM NaCl, 10 mM reduced glutathione, pH 8.0), collecting the supernatant by centrifugation as above.
(§1) The DNA-binding competition assay was performed in black 384-well plates, with mouse full length SOX18, or SOX-HMG fragments. All experiments were performed using a fluorescently-labelled Prox1-DNA element. Controls consisted of free labelled DNA (low FP milli-Polarization index, mP), labelled DNA in presence of protein (negative control, high mP), and labelled DNA and protein in presence of competing excess of unlabelled DNA (positive control, low mP)
(§2) The DNA-binding competition assay was performed in 25 uL, in black 384-well plates, using either 30 mM HEPES (N-2-Hydroxyethylpiperazine-N′-2-Ethanesulfonic Acid) (pH 7.5, with 100 mM KCl, 40 mM NaCl, 10 mM NH4OAc, […], 2 mM MgCl2, 0.5 mM EDTA, 0.01% NP-40) for mouse full length SOX18, or Tris-NaCl (10 mM Tris pH 8.0 and 100 mM NaCl) for SOX-HMG fragments. All experiments were performed using a 40 bp double-stranded Prox1-DNA element with 5′ fluorescein amidite (FAM) label (Sigma Proligo or InVitrogen). Optimum binding levels were obtained at 200 nM of mouse full length SOX18 and 60 nM of SOX-HMG fragment, in presence of 5 nM labelled DNA. Controls consisted of free labelled DNA (low FP milli-Polarization index, mP), labelled DNA in presence of protein (negative control, high mP), and labelled DNA and protein in presence of 400 time competing excess of unlabelled DNA (positive control, low mP). Depending on compound, final DMSO concentrations ranged from 2 to 3.33% v/v. After mixing protein, DNA probe and compound, plates were sealed and briskly agitated in the dark for 5 minutes at room temperature, 10 minutes at 37° C., and 30 minutes at room temperature, before reading fluorescence polarization on a Tecan M1000Pro (λexc=485 nm, λem=525 nm). All experiments were performed in triplicates.

A short description of series [2]: Cytotoxicity assay (Alamar blue), HEK293. It counts as cell-based. Conditions: human, HEK293 cells; HEK293, 24 h. Here is the method: Cell toxicity was determined using Alamar blue, as previously described (McMillian et al., 2002). COS-7 cells were seeded as 7000 cells per well in black wall clear bottom 96-well plates in DMEM medium (Life Technologies Australia) with 10% FBS. HepG2 and HEK293 cell lines, from ATCC, were seeded as 5000 cells per well in black wall clear bottom 384-well cell culture plates in DMEM with 1% FBS. Cells were cultured for 24 h at 37° C., 5% CO2. A serial dilution of compounds was added, with a final DMSO concentration adjusted to 0.5% v/v. Cells were incubated for another 24 h. 1 Triton X-100 was used as negative control, and 0.5% DMSO as positive control. 5 μM Alamar blue was added to each well and fluorescence was measured (λexc=560 nm, λem=590 nm) after 2 h incubation at 37° C. Data were analysed using Prism software.
Background: Resazurin is reduced to fluorescent resorufin, in cell work by metabolically active cells.

In series [3] the target is SOX18[109] HMG fragment (Mus musculus (Mouse), UniProt P43680). As to the kind of experiment: FP DNA-binding competition assay, SOX18[109] HMG fragment. To be noted: for remaining activity at 50 µM / remaining activity at 200 µM: SOX18/DNA binding; for remaining activity at 50 µM: read-out: FP bound fraction (%) 50 μM; for remaining activity at 200 µM: read-out: FP bound fraction (%) 200 μM; for SOX18-DNA binding inhibition (FP, words): SAR library, SOX18[109]. The procedure:
Mouse SOX HMG fragments. The HMG domains of mouse SOX2 (Group B), SOX11 (Group C), SOX6 (Group D), SOX9 (Group E), SOX18 (Group F) and SOX15 (Group G) were BP cloned from cDNA templates (IMAGE cDNA clone IDs: Sox18: 3967084; Sox9: 5354229; Sox4: 6822618) into a pDONRTM221 pENTRY vector, sequenced and recombined into a pETG20A or a pHisMBP expression plasmid using Gateway®LR Technology (Ng et al., 2012). Constructs were transformed into Escherichia coli BL21(DE3) cells (Luria-Bertani, 100 μg/ml Ampicillin).
as §1, §2
In order to pinpoint the possible binding site of the small molecules, the FP assays were repeated with a shorter, DNA-binding centred protein fragment. The DNA binding domain of SOX TFs consists of the […] amino acid long High Mobility Group (HMG) box. The 109 amino-acid long SOX18 fragment (SOX18[109]) corresponds to residues 69-177 (numbering by mouse SOX18), which includes the HMG box (residues 78-149) and N- and C-terminal flanking sequences of 9 and 28 amino-acids, respectively.

Series [4] in a line: Cytotoxicity assay (Alamar blue), HepG2. It counts as cell-based. To be noted: human, HepG2 cells; HepG2, 24 h.

SMILES strings stand for the structures.

The record followed here is US20240002326A1, “COMPOUNDS AND USE THEREOF IN METHODS OF TREATMENT” (The University of Queensland, priority 2016, published 2024).

SOX18[109] HMG fragment, sequence (P43680 69-177): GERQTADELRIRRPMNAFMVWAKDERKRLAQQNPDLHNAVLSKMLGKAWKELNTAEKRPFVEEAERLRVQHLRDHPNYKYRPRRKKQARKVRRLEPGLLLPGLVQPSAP
full-length mouse SOX18, sequence (P43680 whole entry): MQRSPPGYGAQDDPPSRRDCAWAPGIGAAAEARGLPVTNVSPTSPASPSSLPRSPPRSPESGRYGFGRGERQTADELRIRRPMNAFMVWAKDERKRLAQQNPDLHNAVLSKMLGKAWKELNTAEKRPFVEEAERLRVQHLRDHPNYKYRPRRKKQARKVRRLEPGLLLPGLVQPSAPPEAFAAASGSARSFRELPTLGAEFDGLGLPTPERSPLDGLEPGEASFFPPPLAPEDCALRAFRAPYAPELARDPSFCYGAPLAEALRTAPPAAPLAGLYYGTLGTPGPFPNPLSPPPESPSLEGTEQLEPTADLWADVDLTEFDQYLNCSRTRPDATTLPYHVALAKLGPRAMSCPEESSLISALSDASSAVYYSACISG

Take `CCCCCCCCCCCc1cccc(O)c1C(=O)O` [Sm1, 6-undecyl salicylic acid]: in series [1], the “FP IC50 ± SD” value is given as “high micromolar range” and the IC50 stood at 348 ± 1.1 µM.
With `CCCCCCCCCCCCCc1cccc(O)c1C(=O)O` [Sm2, 6-tridecyl salicylic acid], in series [1], the “FP IC50 ± SD” value was “high micromolar range” and the IC50 came out at 341 ± 1.1 µM.
Compound `CCN(CC)C(=O)c1c(/C=C\c2ccc3ccccc3c2)cccc1OC` [Sm15, (Z)-N,N-diethyl-2-methoxy-6-(2-(naphthalen-2-yl)vinyl)benzamide] yielded a cytotoxic concentration (CC50) at 24 h in series [2] above 100 µM. In series [3], the remaining activity at 50 µM was determined as 103 ± 7.4% and the remaining activity at 200 µM turned out to be 121 ± 4.7%.
Taken in the same sequence, the figures for `CCN(CC)C(=O)c1c(/C=C/c2ccc3ccccc3c2)cccc1OC` [Sm16, (E)-N,N-diethyl-2-methoxy-6-(2-(naphthalene-2-yl)vinyl)benzamide] were above 100 µM, 99.3 ± 6.2% and 109 ± 4.9%.
For `O=C(O)c1c(O)cccc1/C=C/c1ccccc1` [Sm21, (E)-2-hydroxy-6-styrylbenzoic acid], the CC50 at 24 h in series [4] was above 100 µM. The compound also had a CC50 at 24 h in series [2] above 100 µM. In addition, in series [3], the remaining activity at 50 µM was 103 ± 8.8% and the remaining activity at 200 µM was found to be 98.1 ± 2.1%.
For the compound `O=C(O)c1c(O)cccc1CCc1ccccc1` [Sm22, 2-hydroxy-6-phenethylbenzoic acid], in series [4], the CC50 at 24 h was above 100 µM. The compound further displayed a cytotoxic concentration (CC50) at 24 h in series [2] above 100 µM. In series [3], the remaining activity at 50 µM came out at 98.1 ± 6.1%; the remaining activity at 200 µM was 93.1 ± 9.5%; the “SOX18-DNA binding inhibition (FP, words)” value is recorded as “completely eliminated all activity”.
In the case of `COc1cc(/C=C/c2ccc3ccccc3c2)c(C(=O)O)c(OC)c1` [Sm27, (E)-2,4-dimethoxy-6-(2-(naphthalen-2-yl)vinyl)benzoic acid], the CC50 at 24 h in series [4] is above 100 µM. Further, the CC50 at 24 h in series [2] was above 100 µM. For the same compound, in series [3], the remaining activity at 50 µM was found to be 97 ± 6.1% and the remaining activity at 200 µM came out at 92.8 ± 21.7%.
In turn, `COc1cc(O)c(C(=O)O)c(CCc2ccc3ccccc3c2)c1` [Sm29, 2-hydroxy-4-methoxy-6-(2(naphthalen-2-yl)ethyl)benzoic acid] had a cytotoxic concentration (CC50) at 24 h in series [4] of 71.2 µM. The CC50 at 24 h in series [2] turned out to be 64.4 µM. Further, in series [3], the remaining activity at 50 µM came to 73 ± 1.9% and the remaining activity at 200 µM came out at 2 ± 7.2%.
Taken in the same sequence, the figures for `COc1cc(CCc2ccc3ccccc3c2)c(C(=O)O)c(OC)c1` [Sm30, 2,4-dimethoxy-6-(2-(naphthalen-2-yl)ethyl)benzoic acid] were above 100 µM, above 100 µM, 99 ± 7.6% and 109 ± 2.8%.
Turning to `O=C(O)c1c(O)cc(Cl)cc1/C=C/c1ccc2ccccc2c1` [Sm32, (E)-4-chloro-2-hydroxy-6-(2-(naphthalen-2-yl)vinyl)benzoic acid], the CC50 at 24 h in series [4] is 24 µM; in series [2], 37.6 µM. Besides, the remaining activity at 50 µM in series [3] stood at 3.9 ± 6%. Further, the remaining activity at 200 µM in series [3] was 10.9 ± 5.2%.
With `Cc1cc(O)c(C(=O)O)c(/C=C/c2ccc3ccccc3c2)c1` [Sm35, (E)-2-hydroxy-4-methyl-6-(2-(naphthalen-2-yl)vinyl)benzoic acid], the CC50 at 24 h in series [4] stood at 30.3 µM. In series [2], this compound registered a cytotoxic concentration (CC50) at 24 h of 52.2 µM. Moreover, in series [3], the remaining activity at 50 µM was -1.5 ± 3.5% and the remaining activity at 200 µM was -3.7 ± 7.9%.
Taken in the same sequence, the figures for `Cc1cc(O)c(C(=O)O)c(CCc2ccc3ccccc3c2)c1` [Sm36, 2-hydroxy-4-methyl-6-(2-(naphthalen-2-yl)ethyl)benzoic acid] were 37.7 µM, 39.9 µM, 10.9 ± 9.6% and -3.9 ± 6.8%.
With `COc1cc(/C=C/c2ccccc2)cc(OC)c1OC` [Sm38, (E)-1,2,3-trimethoxy-5-styrylbenzene], the cytotoxic concentration (CC50) at 24 h in series [4] is above 100 µM. Moreover, the half-maximal cytotoxic concentration (CC50) at 24 h in series [2] was above 100 µM. Besides, in series [3], the remaining activity at 50 µM worked out at 102 ± 11.2% and the remaining activity at 200 µM turned out to be 120 ± 6.6%.
As to `COc1cc(CCc2ccccc2)cc(OC)c1OC` [Sm39, 1,2,3-trimethoxy-5-phenethylbenzene], in series [4], the half-maximal cytotoxic concentration (CC50) at 24 h was above 100 µM. In series [2], the 50% cytotoxic concentration (CC50) at 24 h is above 100 µM. Also, in series [3], the remaining activity at 50 µM came to 102 ± 9.7% and the remaining activity at 200 µM was 117 ± 8.1%.
As to `COc1cc(CCc2ccc3ccccc3c2)cc(OC)c1OC` [Sm43, 2-(3,4,5-trimethoxyphenethyl)naphthalene], the 50% cytotoxic concentration (CC50) at 24 h in series [4] was above 100 µM. The same compound yielded a 50% cytotoxic concentration (CC50) at 24 h in series [2] above 100 µM. In addition, in series [3], the remaining activity at 50 µM amounted to 106 ± 9.5% and the remaining activity at 200 µM was 113 ± 3.6%.
In series [4], `Oc1cc(CCc2ccc3ccccc3c2)cc(O)c1O` [Sm44, 5-(2-(naphthalen-2-yl)ethyl)benzene-1,2,3-triol] showed a CC50 at 24 h above 100 µM. Besides, the CC50 at 24 h in series [2] is above 100 µM. Moreover, in series [3], the remaining activity at 50 µM was found to be 108 ± 10.1%; the remaining activity at 200 µM worked out at 53.5 ± 9.6%; the “SOX18-DNA binding inhibition (FP, words)” value is on record as “not active”.

In general, IC50 refers to the midpoint of a concentration-inhibition curve. As a reminder, the CC50 is the concentration giving 50% cytotoxicity. Read a high CC50 as lower toxicity to the cells.
